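Briefly, cells in 96-well plates were exposed to five compound concentrations for 48 h, and endpoints were estimated by linear interpolation. TGI is the concentration that stops growth completely.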
Assays:
Assay in all cases: NCI-60 cell line screen, 48 h
IGROV1 ovarian = system: IGROV1 ovarian
RXF 393 renal = system: RXF 393 renal
SF-295 CNS = system: SF-295 CNS
HCC-2998 colon = system: HCC-2998 colon
HS 578T breast = system: HS 578T breast
RPMI-8226 leukemia = system: RPMI-8226 leukemia
NCI/ADR-RES ovarian = system: NCI/ADR-RES ovarian
UO-31 renal = system: UO-31 renal
OVCAR-8 ovarian = system: OVCAR-8 ovarian
SN12C renal = system: SN12C renal
OVCAR-4 ovarian = system: OVCAR-4 ovarian
SK-MEL-28 melanoma = system: SK-MEL-28 melanoma
SF-539 CNS = system: SF-539 CNS
MDA-MB-231 breast = system: MDA-MB-231 breast
786-0 renal = system: 786-0 renal
NCI-H226 lung = system: NCI-H226 lung
U251 CNS = system: U251 CNS
OVCAR-3 ovarian = system: OVCAR-3 ovarian
NCI-H460 lung = system: NCI-H460 lung
SK-OV-3 ovarian = system: SK-OV-3 ovarian
SF-268 CNS = system: SF-268 CNS
HT29 colon = system: HT29 colon
T-47D breast = system: T-47D breast
OVCAR-5 ovarian = system: OVCAR-5 ovarian
MALME-3M melanoma = system: MALME-3M melanoma
PC-3 prostate = system: PC-3 prostate
COLO 205 colon = system: COLO 205 colon
TK-10 renal = system: TK-10 renal
KM12 colon = system: KM12 colon
HCT-116 colon = system: HCT-116 colon
HOP-92 NSCLC = system: HOP-92 NSCLC
HOP-62 NSCLC = system: HOP-62 NSCLC
MDA-N = system: MDA-N
SK-MEL-5 melanoma = system: SK-MEL-5 melanoma
BT-549 breast = system: BT-549 breast
MOLT-4 leukemia = system: MOLT-4 leukemia
SK-MEL-2 melanoma = system: SK-MEL-2 melanoma
SNB-19 CNS = system: SNB-19 CNS
UACC-62 melanoma = system: UACC-62 melanoma
SR leukemia = system: SR leukemia
MDA-MB-435 = system: MDA-MB-435
SNB-75 CNS = system: SNB-75 CNS
ACHN renal = system: ACHN renal
A549 NSCLC = system: A549 NSCLC
UACC-257 melanoma = system: UACC-257 melanoma
DU-145 prostate = system: DU-145 prostate
M14 melanoma = system: M14 melanoma
MCF7 breast = system: MCF7 breast
NCI-H23 lung = system: NCI-H23 lung
NCI-H522 lung = system: NCI-H522 lung
SW-620 colon = system: SW-620 colon
K-562 leukemia = system: K-562 leukemia
HCT-15 colon = system: HCT-15 colon
CAKI-1 renal = system: CAKI-1 renal
LOX IMVI melanoma = system: LOX IMVI melanoma
A498 renal = system: A498 renal
CCRF-CEM leukemia = system: CCRF-CEM leukemia
EKVX NSCLC = system: EKVX NSCLC

Question: With Cc1ccc(NC(=S)NNC(=O)c2cc(-c3ccccc3)nc3ccccc23)cc1 as the compound, how does the TGI (IGROV1 ovarian) read?
Answer: 36.7 µM

Question: What about the TGI (RXF 393 renal) of the same compound?
Answer: 26.6 µM

Question: What about the TGI (SF-295 CNS) of the same compound?
Answer: 17.4 µM

Question: And the TGI (HCC-2998 colon)?
Answer: 24.3 µM

Question: What about the TGI (HS 578T breast) of the same compound?
Answer: 38.2 µM

Question: What about the TGI (RPMI-8226 leukemia) of the same compound?
Answer: 39.2 µM

Question: And the TGI (NCI/ADR-RES ovarian)?
Answer: 48 µM

Question: What about the TGI (UO-31 renal) of the same compound?
Answer: 25.5 µM

Question: What about the TGI (OVCAR-8 ovarian) of the same compound?
Answer: 47.8 µM

Question: What about the TGI (SN12C renal) of the same compound?
Answer: 31.8 µM

Question: What about the TGI (OVCAR-4 ovarian) of the same compound?
Answer: 35.6 µM

Question: And the TGI (SK-MEL-28 melanoma)?
Answer: 20.1 µM

Question: And the TGI (SF-539 CNS)?
Answer: 30.1 µM

Question: And the TGI (MDA-MB-231 breast)?
Answer: 36.3 µM

Question: And the TGI (786-0 renal)?
Answer: 26.1 µM

Question: And the TGI (NCI-H226 lung)?
Answer: 39.7 µM

Question: What about the TGI (U251 CNS) of the same compound?
Answer: 20.2 µM

Question: And the TGI (OVCAR-3 ovarian)?
Answer: 21.7 µM

Question: What about the TGI (NCI-H460 lung) of the same compound?
Answer: 47.9 µM

Question: What about the TGI (SK-OV-3 ovarian) of the same compound?
Answer: 30.3 µM

Question: And the TGI (SF-268 CNS)?
Answer: 34.8 µM

Question: And the TGI (HT29 colon)?
Answer: 55 µM

Question: What about the TGI (T-47D breast) of the same compound?
Answer: 21.3 µM

Question: And the TGI (OVCAR-5 ovarian)?
Answer: 31.3 µM

Question: And the TGI (MALME-3M melanoma)?
Answer: 34.6 µM

Question: What about the TGI (PC-3 prostate) of the same compound?
Answer: 32.2 µM

Question: What about the TGI (COLO 205 colon) of the same compound?
Answer: 35.3 µM

Question: What about the TGI (TK-10 renal) of the same compound?
Answer: 29.1 µM

Question: What about the TGI (KM12 colon) of the same compound?
Answer: 37.7 µM

Question: What about the TGI (HCT-116 colon) of the same compound?
Answer: 21.3 µM

Question: What about the TGI (HOP-92 NSCLC) of the same compound?
Answer: 25.8 µM

Question: What about the TGI (HOP-62 NSCLC) of the same compound?
Answer: 27.8 µM

Question: What about the TGI (MDA-N) of the same compound?
Answer: 12.7 µM

Question: And the TGI (SK-MEL-5 melanoma)?
Answer: 35.3 µM

Question: And the TGI (BT-549 breast)?
Answer: 32.7 µM

Question: What about the TGI (MOLT-4 leukemia) of the same compound?
Answer: 44.3 µM

Question: What about the TGI (SK-MEL-2 melanoma) of the same compound?
Answer: 24 µM

Question: And the TGI (SNB-19 CNS)?
Answer: 42.4 µM

Question: And the TGI (UACC-62 melanoma)?
Answer: 30.6 µM

Question: And the TGI (SR leukemia)?
Answer: 6.72 µM

Question: What about the TGI (MDA-MB-435) of the same compound?
Answer: 10.9 µM

Question: And the TGI (SNB-75 CNS)?
Answer: 42.3 µM

Question: And the TGI (ACHN renal)?
Answer: 31.3 µM

Question: And the TGI (A549 NSCLC)?
Answer: 26.2 µM

Question: And the TGI (UACC-257 melanoma)?
Answer: 33 µM

Question: What about the TGI (DU-145 prostate) of the same compound?
Answer: 26.1 µM

Question: What about the TGI (M14 melanoma) of the same compound?
Answer: 26.8 µM

Question: What about the TGI (MCF7 breast) of the same compound?
Answer: 31.5 µM

Question: And the TGI (NCI-H23 lung)?
Answer: 27.4 µM

Question: And the TGI (NCI-H522 lung)?
Answer: 39 µM

Question: And the TGI (SW-620 colon)?
Answer: 25.9 µM

Question: And the TGI (K-562 leukemia)?
Answer: > 100 µM

Question: And the TGI (HCT-15 colon)?
Answer: 25.9 µM

Question: What about the TGI (CAKI-1 renal) of the same compound?
Answer: 45.9 µM

Question: Cn1c(=O)c2c(no[n+]2[O-])c2ccccc21 was tested. Which TGI (IGROV1 ovarian) did it give?
Answer: 31.4 µM

Question: And the TGI (RXF 393 renal)?
Answer: 62 µM

Question: What about the TGI (SF-295 CNS) of the same compound?
Answer: 61.1 µM

Question: What about the TGI (LOX IMVI melanoma) of the same compound?
Answer: 31.4 µM

Question: What about the TGI (HCC-2998 colon) of the same compound?
Answer: 27.3 µM

Question: And the TGI (HS 578T breast)?
Answer: 62.2 µM

Question: What about the TGI (RPMI-8226 leukemia) of the same compound?
Answer: 62 µM

Question: What about the TGI (NCI/ADR-RES ovarian) of the same compound?
Answer: 47.3 µM

Question: What about the TGI (UO-31 renal) of the same compound?
Answer: 55 µM

Question: And the TGI (OVCAR-8 ovarian)?
Answer: 28.3 µM

Question: And the TGI (SN12C renal)?
Answer: 59.8 µM

Question: And the TGI (OVCAR-4 ovarian)?
Answer: 45.5 µM

Question: And the TGI (A498 renal)?
Answer: 70.2 µM

Question: What about the TGI (SF-539 CNS) of the same compound?
Answer: > 100 µM

Question: What about the TGI (MDA-MB-231 breast) of the same compound?
Answer: 48 µM

Question: And the TGI (786-0 renal)?
Answer: 39.1 µM

Question: And the TGI (NCI-H226 lung)?
Answer: 40.4 µM

Question: What about the TGI (U251 CNS) of the same compound?
Answer: 34.7 µM

Question: What about the TGI (OVCAR-3 ovarian) of the same compound?
Answer: 48.4 µM

Question: And the TGI (NCI-H460 lung)?
Answer: 35.3 µM

Question: And the TGI (SK-OV-3 ovarian)?
Answer: 77 µM

Question: And the TGI (SF-268 CNS)?
Answer: 59.2 µM

Question: What about the TGI (HT29 colon) of the same compound?
Answer: 37.2 µM

Question: And the TGI (T-47D breast)?
Answer: 68.3 µM

Question: And the TGI (CCRF-CEM leukemia)?
Answer: 48.9 µM

Question: What about the TGI (MALME-3M melanoma) of the same compound?
Answer: 29 µM

Question: What about the TGI (PC-3 prostate) of the same compound?
Answer: 71.8 µM

Question: What about the TGI (COLO 205 colon) of the same compound?
Answer: 35.8 µM

Question: What about the TGI (TK-10 renal) of the same compound?
Answer: 56.5 µM

Question: And the TGI (KM12 colon)?
Answer: 25.2 µM

Question: What about the TGI (HCT-116 colon) of the same compound?
Answer: 30.2 µM

Question: And the TGI (HOP-92 NSCLC)?
Answer: 52.2 µM

Question: And the TGI (HOP-62 NSCLC)?
Answer: 35.9 µM

Question: What about the TGI (MDA-N) of the same compound?
Answer: 87.2 µM

Question: What about the TGI (SK-MEL-5 melanoma) of the same compound?
Answer: 26 µM

Question: What about the TGI (BT-549 breast) of the same compound?
Answer: 34.2 µM

Question: What about the TGI (MOLT-4 leukemia) of the same compound?
Answer: 44.4 µM

Question: What about the TGI (SK-MEL-2 melanoma) of the same compound?
Answer: 28.7 µM

Question: What about the TGI (SNB-19 CNS) of the same compound?
Answer: 84.2 µM

Question: And the TGI (UACC-62 melanoma)?
Answer: 31.8 µM

Question: And the TGI (SR leukemia)?
Answer: 52.3 µM

Question: And the TGI (MDA-MB-435)?
Answer: 68.5 µM

Question: And the TGI (SNB-75 CNS)?
Answer: 35.9 µM

Question: And the TGI (ACHN renal)?
Answer: 83 µM

Question: What about the TGI (A549 NSCLC) of the same compound?
Answer: > 100 µM

Question: And the TGI (UACC-257 melanoma)?
Answer: 33.2 µM

Question: And the TGI (M14 melanoma)?
Answer: 25.3 µM

Question: What about the TGI (EKVX NSCLC) of the same compound?
Answer: 46.1 µM

Question: What about the TGI (MCF7 breast) of the same compound?
Answer: > 100 µM

Question: And the TGI (NCI-H23 lung)?
Answer: 34.8 µM

Question: What about the TGI (NCI-H522 lung) of the same compound?
Answer: 27.8 µM

Question: And the TGI (SW-620 colon)?
Answer: 41.2 µM

Question: What about the TGI (K-562 leukemia) of the same compound?
Answer: > 100 µM

Question: What about the TGI (HCT-15 colon) of the same compound?
Answer: 29.5 µM

Question: What about the TGI (CAKI-1 renal) of the same compound?
Answer: 32.4 µM
